{
  "source": "paper PMC11413853",
  "about": "“Discovery of VU6007496: Challenges in the Development of an M1 Positive Allosteric Modulator Backup Candidate” (ACS Chemical Neuroscience, 2024)",
  "key": {"Adrenergic β2": {"tested_on": "Adrenergic β2", "test": "Eurofins radioligand binding", "design": "species or system Human", "conditions": "specific binding"}, "Imidazoline I2, Central": {"tested_on": "Imidazoline I2, Central", "test": "Eurofins radioligand binding", "design": "species or system Rat", "conditions": "specific binding"}, "Adenosine A1": {"tested_on": "Adenosine A1", "test": "Eurofins radioligand binding", "design": "species or system Human", "conditions": "specific binding"}, "Purinergic P2X": {"tested_on": "Purinergic P2X", "test": "Eurofins radioligand binding", "design": "species or system Rat", "conditions": "specific binding"}, "Adrenergic β1": {"tested_on": "Adrenergic β1", "test": "Eurofins radioligand binding", "design": "species or system Human", "conditions": "specific binding"}, "Interleukin IL-1 R1": {"tested_on": "Interleukin IL-1 R1", "test": "Eurofins radioligand binding", "design": "species or system Human", "conditions": "specific binding"}, "Sodium Channel, Site 2": {"tested_on": "Sodium Channel, Site 2", "test": "Eurofins radioligand binding", "design": "species or system Rat", "conditions": "specific binding"}, "[1]": {"tested_on": "Calcium Channel L-Type, Dihydropyridine", "test": "Eurofins radioligand binding", "design": "species or system Rat", "conditions": "specific binding"}, "rCYP3A4": {"tested_on": "rCYP3A4", "test": "Substrate depletion with recombinant human CYPs, rCYP3A4", "format": "in vitro ADME", "text": "(§1) To advance 11 as a candidate and into IND-enabling studies, we next needed to better understand its CYP profile to minimize drug–drug interactions in the clinic. […] We were pleased to see the contribution of another CYP beyond 3A4 for the metabolism of 11.[21] In parallel, we investigated the ability of PAM 11 to induce the expression of CYP450s (measuring mRNA) in cryopreserved human hepatocytes from three separate donors."}, "[2]": {"tested_on": "Nicotinic Acetylcholine α1, Bungarotoxin", "test": "Eurofins radioligand binding", "design": "species or system Human", "conditions": "specific binding"}, "rats": {"tested_on": "rats", "test": "Novel object recognition (NOR) test", "format": "in vivo, rat", "protocol": "Novel Object Recognition Task\nRats were habituated for 10 min for 2 consecutive days in an empty novel object recognition (NOR) arena consisting of dark-colored plexiglass box (40 × 64 × 33 cm3). On day 3, rats were administered vehicle (0.5% natrasol/0.015% Tween80) or M1 PAM (0.1-3 mg/kg, p.o.., 10 mL/kg, n = 15-18) and returned to their home cage for 30 min. Rats were then placed in the NOR arena containing two identical objects for 10 min. Following the exposure period, rats were placed back into their home cages for 24 h. The rats were then returned to the arena in which one of the previously exposed (familiar) objects was replaced by a novel object and were video recorded for 5 min while they explored the two objects. Time spent exploring each object was scored by an observer blinded to the experimental conditions and the recognition index was calculated as [(time spent exploring novel object) – (time spent exploring familiar object)]/total time exploring objects.\nSupplemental field electrophysiology methods\nRecording pipettes were constructed from thin-walled borosilicate capillary glass tubing (I.D.=1.17 mm, O.D. 1.50 mm; Warner Instruments, Hamden, CT), pulled with a horizontal pipette puller (P-97 Sutter Instrument Co., Novata, CA) to a resistance of 1-3MΩ when filled with ACSF. […]"}, "[3]": {"test": "Rat dose escalation study (p.o., 30% captisol)", "format": "in vivo", "conditions": "for Cmax: brain, read-out: total brain concentration at Cmax", "protocol": "While awaiting more definitive MET ID studies in multispecies hepatocytes, we elected to perform a rat dose escalation study to assess exposures in a standard, tox-friendly oral vehicle (30% captisol) to lay the foundation for dose range finding/maximum tolerated dose (DRF/MTD) studies. Male Sprague–Dawley rats were dosed with VU6007496 (11) at doses of 3, 10, 30, 100, and 300 mg/kg p.o. in 30% captisol. […]. […] Recall, exposures in rat at the NOR MED were 990 nM total and 39.8 nM unbound brain concentrations, respectively. […]"}, "Dopamine D4.4": {"tested_on": "Dopamine D4.4", "test": "Eurofins radioligand binding", "design": "species or system Human", "conditions": "specific binding"}, "[4]": {"tested_on": "GABAA, Flunitrazepam, Central", "test": "Eurofins radioligand binding", "design": "species or system Rat", "conditions": "specific binding"}, "[5]": {"tested_on": "layer V medial prefrontal cortex (mPFC)", "test": "Field electrophysiology, layer V medial prefrontal cortex slices", "design": "species or system mouse", "conditions": "3 μM bath application 20 min; recorded layer V, stimulation layer II/III", "protocol": "PAMs 11 and 12 were next evaluated in our rat IV plasma: brain level cassette paradigm (0.25 mg/kg compound, 1 mg/kg total dose, 10.1% EtOH:40.4% PEG400:49.5% DMSO) sampled at a set 15 min time point to assess CNS penetration. […] As mice are the most sensitive species to cholinergic mechanisms,[11],[13],[23],[24] we placed a high-throughput phenotypic seizure liability assay into the work-flow in which potent ago-PAMs, such as 2–5,[8]−[15] display robust Racine scale 4/5 behavioral convulsions that develop within minutes of dosing and last for the 3 h duration of the study. […] In parallel, we performed electrophysiology studies in mouse native tissue layer V medial prefrontal cortex (mPFC). […]\nRats were habituated for 10 min for 2 consecutive days in an empty novel object recognition (NOR) arena consisting of dark-colored plexiglass box (40 × 64 × 33 cm3). […] The rats were then returned to the arena in which one of the previously exposed (familiar) objects was replaced by a novel object and were video recorded for 5 min while they explored the two objects. Time spent exploring each object was scored by an observer blinded to the experimental conditions and the recognition index was calculated as [(time spent exploring novel object) – (time spent exploring familiar object)]/total time exploring objects. […]"}, "[6]": {"tested_on": "Leukotriene, Cysteinyl CysLT1", "test": "Eurofins radioligand binding", "design": "species or system Human", "conditions": "specific binding"}, "Muscarinic M3": {"tested_on": "Muscarinic M3", "test": "Eurofins radioligand binding", "design": "species or system Human", "conditions": "specific binding"}, "CYP3A4": {"tested_on": "CYP3A4", "test": "CYP induction (mRNA) in cryopreserved human hepatocytes, CYP3A4", "format": "in vitro ADME", "conditions": "three donors", "text": "as §1"}, "Dopamine D3": {"tested_on": "Dopamine D3", "test": "Eurofins radioligand binding", "design": "species or system Human", "conditions": "specific binding"}},
  "note": "Entries after “also recorded” stand apart in the source; their conditions may differ. Like-named read-outs stand apart in the source and are kept apart here.",
  "data": [
    {"molecule": "Cn1ccc(-c2ccc(Cc3cc(C(=O)NC4CCOCC4)nc4ccn(C)c34)cc2)n1", "note": "[compound 11]", "values": [
      {"measurement": "% Inhibition at 10 µM", "setting": "Adrenergic β2", "value": 7, "unit": "%"},
      {"measurement": "% Inhibition at 10 µM", "setting": "Imidazoline I2, Central", "value": -9, "unit": "%"},
      {"measurement": "% Inhibition at 10 µM", "setting": "Adenosine A1", "value": 10, "unit": "%"},
      {"measurement": "% Inhibition at 10 µM", "setting": "Purinergic P2X", "value": 17, "unit": "%"},
      {"measurement": "% Inhibition at 10 µM", "setting": "Adrenergic β1", "value": -14, "unit": "%"},
      {"measurement": "% Inhibition at 10 µM", "setting": "Interleukin IL-1 R1", "value": 10, "unit": "%"},
      {"measurement": "% Inhibition at 10 µM", "setting": "Sodium Channel, Site 2", "value": 19, "unit": "%"},
      {"measurement": "% Inhibition at 10 µM", "setting": "[1]", "value": -8, "unit": "%"},
      {"measurement": "share of hepatic CYP-mediated clearance, rCYP3A4", "setting": "rCYP3A4", "value": 97.6, "unit": "%"},
      {"measurement": "% Inhibition at 10 µM", "setting": "[2]", "value": -3, "unit": "%"},
      {"measurement": "effect on recognition memory (NOR)", "setting": "rats; rats, 0.1, 0.3, 1, and 3 mg/kg p.o., 30 min pretreatment, assessed 24 h later", "value": "dose-dependently enhanced recognition memory"},
      {"measurement": "minimum effective dose (MED) in novel object recognition", "setting": "rats; rats, p.o.", "value": 3, "unit": "mg/kg"},
      {"measurement": "Cmax", "setting": "[3]; male, Sprague-Dawley, po, rat, 100 mg/kg p.o.", "value": 9.1, "unit": "µM"},
      {"measurement": "Cmax", "setting": "[3]; male, Sprague-Dawley, po, rat, 300 mg/kg p.o.", "value": 17.2, "unit": "µM"},
      {"measurement": "Tmax", "setting": "[3]; male, Sprague-Dawley, in vivo, po, rat, 3, 10, 30, 100, and 300 mg/kg p.o., all doses", "value": "< 2", "unit": "h"},
      {"measurement": "fold over the NOR MED exposure", "setting": "[3]; rat, 100 mg/kg p.o.", "value": "~9", "unit": "fold"},
      {"measurement": "unbound brain concentration at Cmax", "setting": "[3]; rat, 100 mg/kg p.o.", "value": 298, "unit": "nM"},
      {"measurement": "fold over the NOR MED exposure", "setting": "[3]; rat, 300 mg/kg p.o.", "value": "~17", "unit": "fold"},
      {"measurement": "unbound brain concentration at Cmax", "setting": "[3]; rat, 300 mg/kg p.o.", "value": 569, "unit": "nM"},
      {"measurement": "adverse cholinergic events", "setting": "[3]; rat, 100 and 300 mg/kg p.o. dose groups, after 4.5 h", "value": "severe adverse cholinergic events"},
      {"measurement": "dose proportionality of exposure", "setting": "[3]; rat, from 3 to 30 mg/kg p.o.", "value": "Linear dose escalation"},
      {"measurement": "cholinergic toxicity", "setting": "[3]; rats, 30 mg/kg p.o.", "value": "not observed"},
      {"measurement": "window from the MED", "setting": "[3]; rats, 30 mg/kg p.o. vs MED 3 mg/kg", "value": 10, "unit": "fold"},
      {"measurement": "% Inhibition at 10 µM", "setting": "Dopamine D4.4", "value": 1, "unit": "%"},
      {"measurement": "% Inhibition at 10 µM", "setting": "[4]", "value": -3, "unit": "%"},
      {"measurement": "change in fEPSP slope (long-term depression)", "setting": "[5]", "value": "did not induce significant changes; also recorded: no significant change in fEPSP slope"},
      {"measurement": "% Inhibition at 10 µM", "setting": "[6]", "value": 3, "unit": "%"},
      {"measurement": "% Inhibition at 10 µM", "setting": "Muscarinic M3", "value": -4, "unit": "%"},
      {"measurement": "CYP3A4 induction (mRNA)", "setting": "CYP3A4", "value": "~21", "unit": "fold"},
      {"measurement": "% Inhibition at 10 µM", "setting": "Dopamine D3", "value": 8, "unit": "%"}
    ]}
  ]
}
